# Assay results: patent US6544990B2, “Substituted quinolinecarboxamides as antiviral agents” (Pharmacia & Upjohn Company, priority 2001, dated 2003)
# Key:
# HSV polymerase = HSV polymerase (Human herpesvirus 1, UniProt P04293); experiment: Polymerase scintillation proximity assay (SPA), HSV; format: biochemical
# HCMV polymerase = target: T1, HCMV polymerase (Human cytomegalovirus, UniProt P08546); experiment: HCMV polymerase scintillation proximity assay (SPA); format: biochemical; details: CMV polymerase
# T1 construct: made in house; host or cells: recombinant baculovirus-infected SF-9 cells
# Description: The HCMV polymerase assay is performed using a scintillation proximity assay (SPA) as described in several references, such as N. D. Cook, et al., Pharmaceutical Manufacturing International, pages 49-53 (1992); K. Takeuchi, Laboratory Practice, September issue (1992); U.S. Pat. No. 4,568,649 (1986); which are incorporated by reference herein. Reactions are performed in 96-well plates. The assay is conducted in 100 μl volume with 5.4 mM HEPES (pH 7.5), 11.7 mM KCl, 4.5 mM MgCl2, 0.36 mg/ml BSA, and 90 nM 3H-dTTP. Assays are run with and without CHAPS, (3-[(3-Cholamidopropyl)-dimethylammonio]-1-propane-sulfonate) at a final concentration of 2 mM. HCMV polymerase is diluted in enzyme dilution buffer containing 50% glycerol, 250 mM NaCl, 10 mM HEPES (pH 7.5), 100 μg/ml BSA, and 0.01% sodium azide. The HCMV polymerase, which is expressed in recombinant baculovirus-infected SF-9 cells and purified according to literature procedures, is added at 10% (or 10 μl ) of the final reaction volume, i.e., 100 μl. Compounds are diluted in 50% DMSO and 10 μl are added to each well. Control wells contain an equivalent concentration of DMSO. Unless noted otherwise, reactions are initiated via the addition of 6 nM biotinylated poly(dA)-oligo(dT) template/primer to reaction mixtures containing the enzyme, substrate, and compounds of interest. Plates are incubated in a 25 C or 37 C H20 bath and terminated via the addition of 40 μl/reaction of 0.5 M EDTA (pH 8) per well. Reactions are terminated within the time-frame during which substrate incorporation is linear and varied depending upon the enzyme and conditions used, i.e., 30 min. for HCMV polymerase. Ten μl of streptavidin-SPA beads (20 mg/mil in PBS/10% glycerol) are added following termination of the reaction. Plates are incubated 10 min. at 37 C, then equilibrated to room temperature, and counted on a Packard Topcount. Linear regressions are performed and IC50's are calculated using computer software.
# A modified version of the above HCMV polymerase assay is performed as described above, but with the following changes: Compounds are diluted in 100% DMSO until final dilution into assay buffer. In the previous assay, compounds are diluted in 50% DMSO. 4.5 mM dithiotherotol (DTT) is added to the polymerase buffer.
# VZV polymerase = VZV polymerase (Varicella-zoster virus, UniProt P09252); experiment: Polymerase scintillation proximity assay (SPA), VZV; format: biochemical
# Chain of VZV polymerase (P09252 whole entry): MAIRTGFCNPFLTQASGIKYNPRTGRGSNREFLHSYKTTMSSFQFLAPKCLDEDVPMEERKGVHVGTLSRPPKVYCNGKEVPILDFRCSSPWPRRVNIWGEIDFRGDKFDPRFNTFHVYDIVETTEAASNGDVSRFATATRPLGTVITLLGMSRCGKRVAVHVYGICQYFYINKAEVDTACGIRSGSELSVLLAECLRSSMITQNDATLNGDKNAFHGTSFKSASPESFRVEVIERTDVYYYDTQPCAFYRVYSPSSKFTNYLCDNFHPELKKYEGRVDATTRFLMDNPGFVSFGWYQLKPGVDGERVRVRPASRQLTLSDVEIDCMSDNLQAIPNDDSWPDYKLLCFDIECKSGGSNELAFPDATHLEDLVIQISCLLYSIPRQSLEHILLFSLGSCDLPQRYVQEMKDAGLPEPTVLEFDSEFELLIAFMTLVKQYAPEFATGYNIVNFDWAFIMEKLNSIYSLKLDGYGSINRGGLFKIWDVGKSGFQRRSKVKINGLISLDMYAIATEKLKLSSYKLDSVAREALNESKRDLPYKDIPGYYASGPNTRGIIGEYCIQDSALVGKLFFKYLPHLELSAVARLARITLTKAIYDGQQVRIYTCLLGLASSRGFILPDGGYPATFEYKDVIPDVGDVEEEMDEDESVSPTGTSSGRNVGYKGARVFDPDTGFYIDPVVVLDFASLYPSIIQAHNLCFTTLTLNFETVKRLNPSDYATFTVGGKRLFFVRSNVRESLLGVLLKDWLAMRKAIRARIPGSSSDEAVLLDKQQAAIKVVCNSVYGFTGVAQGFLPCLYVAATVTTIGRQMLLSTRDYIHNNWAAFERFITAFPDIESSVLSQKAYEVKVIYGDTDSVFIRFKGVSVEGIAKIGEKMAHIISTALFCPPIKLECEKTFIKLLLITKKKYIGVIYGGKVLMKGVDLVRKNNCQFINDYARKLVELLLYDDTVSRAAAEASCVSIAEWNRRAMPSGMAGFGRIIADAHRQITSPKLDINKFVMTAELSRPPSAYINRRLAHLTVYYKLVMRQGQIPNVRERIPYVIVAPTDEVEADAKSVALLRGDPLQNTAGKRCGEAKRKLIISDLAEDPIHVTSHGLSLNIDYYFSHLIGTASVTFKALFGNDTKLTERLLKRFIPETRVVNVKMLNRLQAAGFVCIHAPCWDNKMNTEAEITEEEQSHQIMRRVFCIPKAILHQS
# Chain of HSV polymerase (P04293 whole entry): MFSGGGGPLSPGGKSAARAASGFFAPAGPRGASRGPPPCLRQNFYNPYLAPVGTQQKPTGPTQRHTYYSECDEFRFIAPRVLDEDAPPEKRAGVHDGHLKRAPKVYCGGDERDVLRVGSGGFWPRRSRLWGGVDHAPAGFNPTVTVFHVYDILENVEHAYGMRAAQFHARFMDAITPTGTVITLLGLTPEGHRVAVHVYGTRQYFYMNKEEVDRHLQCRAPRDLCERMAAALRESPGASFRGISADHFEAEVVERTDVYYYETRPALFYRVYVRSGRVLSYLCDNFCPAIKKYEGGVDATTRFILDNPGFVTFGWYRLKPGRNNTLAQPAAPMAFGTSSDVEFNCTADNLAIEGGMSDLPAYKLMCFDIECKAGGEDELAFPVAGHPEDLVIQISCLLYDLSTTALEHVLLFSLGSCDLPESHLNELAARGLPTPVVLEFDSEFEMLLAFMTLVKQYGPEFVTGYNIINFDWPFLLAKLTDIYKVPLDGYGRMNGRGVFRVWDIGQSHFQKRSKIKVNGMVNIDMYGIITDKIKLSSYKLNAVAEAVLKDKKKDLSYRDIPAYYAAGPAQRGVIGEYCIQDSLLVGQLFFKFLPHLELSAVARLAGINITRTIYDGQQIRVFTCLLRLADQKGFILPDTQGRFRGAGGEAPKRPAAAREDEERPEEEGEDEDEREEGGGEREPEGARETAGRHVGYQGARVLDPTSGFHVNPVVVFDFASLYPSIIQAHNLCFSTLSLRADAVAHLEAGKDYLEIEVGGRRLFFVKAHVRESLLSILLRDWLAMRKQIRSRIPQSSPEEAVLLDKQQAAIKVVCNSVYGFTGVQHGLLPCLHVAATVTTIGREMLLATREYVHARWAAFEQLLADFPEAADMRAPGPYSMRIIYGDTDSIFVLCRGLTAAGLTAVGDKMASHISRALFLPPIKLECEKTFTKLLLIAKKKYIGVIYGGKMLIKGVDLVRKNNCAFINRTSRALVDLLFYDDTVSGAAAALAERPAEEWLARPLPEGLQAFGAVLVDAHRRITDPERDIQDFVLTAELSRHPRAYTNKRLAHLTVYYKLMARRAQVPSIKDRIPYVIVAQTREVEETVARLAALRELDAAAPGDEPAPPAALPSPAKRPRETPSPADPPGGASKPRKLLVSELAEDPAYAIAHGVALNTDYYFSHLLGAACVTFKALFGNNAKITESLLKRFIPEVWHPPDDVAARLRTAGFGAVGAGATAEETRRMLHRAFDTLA
# T1 sequence (P08546 whole entry): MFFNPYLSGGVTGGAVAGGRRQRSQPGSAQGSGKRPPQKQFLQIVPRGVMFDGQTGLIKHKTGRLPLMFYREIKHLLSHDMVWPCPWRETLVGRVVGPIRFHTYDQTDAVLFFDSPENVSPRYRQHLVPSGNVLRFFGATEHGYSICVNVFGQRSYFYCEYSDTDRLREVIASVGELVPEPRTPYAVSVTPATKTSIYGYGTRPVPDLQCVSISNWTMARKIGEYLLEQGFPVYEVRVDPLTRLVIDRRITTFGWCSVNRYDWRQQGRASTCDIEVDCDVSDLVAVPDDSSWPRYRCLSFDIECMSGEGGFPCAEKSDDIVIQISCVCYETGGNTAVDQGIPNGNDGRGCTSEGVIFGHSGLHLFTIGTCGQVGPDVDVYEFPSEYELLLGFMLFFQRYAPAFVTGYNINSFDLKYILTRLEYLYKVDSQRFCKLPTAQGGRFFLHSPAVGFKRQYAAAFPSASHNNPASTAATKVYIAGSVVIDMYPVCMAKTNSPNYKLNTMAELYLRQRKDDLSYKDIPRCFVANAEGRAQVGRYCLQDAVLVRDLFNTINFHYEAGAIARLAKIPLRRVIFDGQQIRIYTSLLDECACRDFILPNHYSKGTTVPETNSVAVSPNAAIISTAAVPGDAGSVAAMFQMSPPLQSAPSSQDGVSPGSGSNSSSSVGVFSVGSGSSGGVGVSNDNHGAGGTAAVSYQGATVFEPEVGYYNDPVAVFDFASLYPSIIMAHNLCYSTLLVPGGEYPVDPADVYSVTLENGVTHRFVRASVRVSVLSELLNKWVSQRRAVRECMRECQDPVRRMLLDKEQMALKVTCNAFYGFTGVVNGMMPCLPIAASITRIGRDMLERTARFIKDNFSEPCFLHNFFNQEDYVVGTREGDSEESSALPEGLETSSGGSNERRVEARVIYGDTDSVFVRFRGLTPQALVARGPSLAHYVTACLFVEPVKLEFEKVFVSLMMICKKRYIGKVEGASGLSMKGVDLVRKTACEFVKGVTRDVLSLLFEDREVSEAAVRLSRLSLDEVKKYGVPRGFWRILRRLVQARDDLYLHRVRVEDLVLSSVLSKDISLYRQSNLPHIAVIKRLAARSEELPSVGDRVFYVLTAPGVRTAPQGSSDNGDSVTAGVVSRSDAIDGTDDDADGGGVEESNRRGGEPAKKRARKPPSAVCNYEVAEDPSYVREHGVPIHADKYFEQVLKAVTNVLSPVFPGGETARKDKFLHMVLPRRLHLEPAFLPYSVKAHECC
SMILES,melting point [°C],IC50 (HSV polymerase) [µM],IC50 (HCMV polymerase) [µM],IC50 (VZV polymerase) [µM]
"Cn1cc(C(=O)NCc2ccc(Cl)cc2)c(=O)c2cc(CC3CCOCC3)cc(C#CCO)c21 [Example 1, N-(4-chlorobenzyl)-8-(3-hydroxy-1-propynyl)-1-methyl-4-oxo-6-(tetrahydro-2H-pyran-4-ylmethyl)-1,4-dihydro-3-quinolinecarboxamide]",166 to 168,0.25,0.32,0.18
"Cn1cc(C(=O)NCc2ccc(Cl)cc2)c(=O)c2cc(CC3CCOCC3)cc(C#CCCO)c21 [Example 2, N-(4-chlorobenzyl)-8-(4-hydroxy-1-butynyl)-1-methyl-4-oxo-6-(tetrahydro-2H-pyran-4-ylmethyl)-1,4-dihydro-3-quinolinecarboxamide]",186 to 188,–,0.32,–
"CN(C)CC#Cc1cc(CC2CCOCC2)cc2c(=O)c(C(=O)NCc3ccc(Cl)cc3)cn(C)c12 [Example 3, N-(4-chlorobenzyl)-8-[3-(dimethylamino)-1-propynyl]-1-methyl-4-oxo-6-(tetrahydro-2H-pyran-4-ylmethyl)-1,4-dihydro-3-quinolinecarboxamide]",157 to 159,–,0.87,–
"Cn1cc(C(=O)NCc2ccc(Cl)cc2)c(=O)c2cc(CN3CCOCC3)cc(C#CCO)c21 [Example 4, N-(4-chlorobenzyl)-8-(3-hydroxy-1-propynyl)-1-methyl-6-(4-morpholinylmethyl)-4-oxo-1,4-dihydro-3-quinolinecarboxamide]",180 to 183,0.83,0.83,0.36
"CN(C)CC#Cc1cc(CN2CCOCC2)cc2c(=O)c(C(=O)NCc3ccc(Cl)cc3)cn(C)c12 [Example 5, N-(4-chlorobenzyl)-8-[3-(dimethylamino)-1-propynyl]-1-methyl-6-(4-morpholinylmethyl)-4-oxo-1,4-dihydro-3-quinolinecarboxamide]",154 to 157,–,1.6,–
"Cn1cc(C(=O)NCc2ccc(Cl)cc2)c(=O)c2cc(CN3CCOCC3)cc(C#CCCO)c21 [Example 6, N-(4-chlorobenzyl)-8-(4-hydroxy-1-butynyl)-1-methyl-6-(4-morpholinylmethyl)-4-oxo-1,4-dihydro-3-quinolinecarboxamide]",168 to 170,0.82,0.8,0.36
"Cn1cc(C(=O)NCc2ccc(Cl)cc2)c(=O)c2cc(CN3CCOCC3)cc(C#CCC[C@@H]3COC(=O)N3)c21 [Example 9, N-(4-chlorobenzyl)-1-methyl-6-(4-morpholinylmethyl)-4-oxo-8-{4-[(4R)-2-oxo-1,3-oxazolidin-4-yl]-1-butynyl}-1,4-dihydro-3-quinolinecarboxamide]",171 to 173,–,0.55,–
"Cn1cc(C(=O)NCc2ccc(Cl)cc2)c(=O)c2cc(CN3CCOCC3)cc(C#CCF)c21 [Example 12, N-(4-chlorobenzyl)-8-(3-fluoroprop-1-ynyl)-1-methyl-6-(morpholin-4-ylmethyl)-4-oxo-1,4-dihydroquinoline-3-carboxamide]",189 to 191,–,0.77,–
"Cc1cncn1CC#Cc1cc(CN2CCOCC2)cc2c(=O)c(C(=O)NCc3ccc(Cl)cc3)cn(C)c12 [Example 14, N-(4-chlorobenzyl)-1-methyl-8-[3-(5-methyl-1H-imidazol-1-yl)prop-1-ynyl]-6-(morpholin-4-ylmethyl)-4-oxo-1,4-dihydroquinoline-3-carboxamide]",–,–,0.52,–
"CC(O)CC#Cc1cc(CN2CCOCC2)cc2c(=O)c(C(=O)NCc3ccc(Cl)cc3)cn(C)c12 (centres unmarked) [Example 18, N-(4-chlorobenzyl)-8-(4-hydroxypent-1-ynyl)-1-methyl-6-(morpholin-4-ylmethyl)-4-oxo-1,4-dihydroquinoline-3-carboxamide]",178 to 180,–,0.61,–
"Cn1cc(C(=O)NCc2ccc(Cl)cc2)c(=O)c2cc(CN3CCOCC3)cc(C#CCN3CCC(O)CC3)c21 [Example 19, N-(4-chlorobenzyl)-8-[3-(4-hydroxypiperidin-1-yl)prop-1-ynyl]-1-methyl-6-(morpholin-4-ylmethyl)-4-oxo-1,4-dihydroquinoline-3-carboxamide]",180 to 183,–,1.01,–
"Cn1cc(C(=O)NCc2ccc(Cl)cc2)c(=O)c2cc(CN3CCOCC3)cc(C#CCN3CCC(O)C3)c21 (centres unmarked) [Example 20, N-(4-chlorobenzyl)-8-[3-(3-hydroxypyrrolidin-1-yl)prop-1-ynyl]-1-methyl-6-(morpholin-4-ylmethyl)-4-oxo-1,4-dihydroquinoline-3-carboxamide]",144 to 146,–,1.02,–
"CN(CC#Cc1cc(CN2CCOCC2)cc2c(=O)c(C(=O)NCc3ccc(Cl)cc3)cn(C)c12)CC(O)CO (centres unmarked) [Example 21, N-(4-chlorobenzyl)-8-{3-[(2,3-dihydroxypropyl)(methyl)amino]prop-1-ynyl}-1-methyl-6-(morpholin-4-ylmethyl)-4-oxo-1,4-dihydroquinoline-3-carboxamide]",140 to 142,–,0.8,–
"CN(CC#Cc1cc(CN2CCOCC2)cc2c(=O)c(C(=O)NCc3ccc(Cl)cc3)cn(C)c12)CCO [Example 22, N-(4-chlorobenzyl)-8-{3-[(2-hydroxyethyl)(methyl)amino]prop-1-ynyl}-1-methyl-6-(morpholin-4-ylmethyl)-4-oxo-1,4-dihydroquinoline-3-carboxamide]",148 to 149,–,0.82,–
"Cn1cc(C(=O)NCc2ccc(Cl)cc2)c(=O)c2cc(CN3CCOCC3)cc(C#CCC(CO)CO)c21 [Example 24, N-(4-chlorobenzyl)-8-[5-hydroxy-4-(hydroxymethyl)pent-1-ynyl]-1-methyl-6-(morpholin-4-ylmethyl)-4-oxo-1,4-dihydroquinoline-3-carboxamide]",190 to 193,–,0.56,–
"Cn1cc(C(=O)NCc2ccc(Cl)cc2)c(=O)c2cc(CN3CCOCC3)cc(C#CCN3CCCC(CO)C3)c21 (centres unmarked) [Example 25, N-(4-chlorobenzyl)-8-{3-[3-(hydroxymethyl)piperidin-1-yl]prop-1-ynyl}-1-methyl-6-(morpholin-4-ylmethyl)-4-oxo-1,4-dihydroquinoline-3-carboxamide]",–,–,0.74,–
"Cn1cc(C(=O)NCc2ccc(Cl)cc2)c(=O)c2cc(CN3CCOCC3)cc(C#CCN3CCN(CCO)CC3)c21 [Example 26, N-(4-chlorobenzyl)-8-{3-[4-(2-hydroxyethyl)piperazin-1-yl]prop-1-ynyl}-1-methyl-6-(morpholin-4-ylmethyl)-4-oxo-1,4-dihydroquinoline-3-carboxamide]",–,–,1.29,–
"Cn1cc(C(=O)NCc2ccc(Cl)cc2)c(=O)c2cc(CN3CCOCC3)cc(C#CCN3CCC[C@H]3CO)c21 [Example 27, N-(4-chlorobenzyl)-8-{3-[(2S)-2-(hydroxymethyl)pyrrolidin-1-yl]prop-1-ynyl}-1-methyl-6-(morpholin-4-ylmethyl)-4-oxo-1,4-dihydroquinoline-3-carboxamide]",–,–,0.94,–
"Cn1cc(C(=O)NCc2ccc(Cl)cc2)c(=O)c2cc(CN3CCOCC3)cc(C#CCN3CCCC(O)C3)c21 (centres unmarked) [Example 28, N-(4-chlorobenzyl)-8-[3-(3-hydroxypiperidin-1-yl)prop-1-ynyl]-1-methyl-6-(morpholin-4-ylmethyl)-4-oxo-1,4-dihydroquinoline-3-carboxamide]",–,–,0.82,–
"Cn1cc(C(=O)NCc2ccc(Cl)cc2)c(=O)c2cc(CN3CCOCC3)cc(C#CCN3CCC[C@@H]3CO)c21 [Example 29, N-(4-chlorobenzyl)-8-{3-[(2R)-2-(hydroxymethyl)pyrrolidin-1-yl]prop-1-ynyl}-1-methyl-6-(morpholin-4-ylmethyl)-4-oxo-1,4-dihydroquinoline-3-carboxamide]",–,–,0.73,–
"Cn1cc(C(=O)NCc2ccc(Cl)cc2)c(=O)c2cc(CN3CCOCC3)cc(C#CCN3CCCCC3CCO)c21 (centres unmarked) [Example 30, N-(4-chlorobenzyl)-8-{3-[2-(2-hydroxyethyl)piperidin-1-yl]prop-1-ynyl}-1-methyl-6-(morpholin-4-ylmethyl)-4-oxo-1,4-dihydroquinoline-3-carboxamide]",–,–,0.71,–
"CCCCN(CC#Cc1cc(CN2CCOCC2)cc2c(=O)c(C(=O)NCc3ccc(Cl)cc3)cn(C)c12)CCO [Example 31, 8-{3-[butyl(2-hydroxyethyl)amino]prop-1-ynyl}-N-(4-chlorobenzyl)-1-methyl-6-(morpholin-4-ylmethyl)-4-oxo-1,4-dihydroquinoline-3-carboxamide]",–,0.55,0.49,0.33
